Experimental data from patent publication US11542492B2 (Celgene CAR LLC, priority 2009, dated 2023).

What was measured:
[1] = molecular target: T1, NS3/4A C159S (Hepatitis C virus genotype 1b, UniProt Q9WMX2, C1185S); assay: Lysine modification using biotinylated covalent probe in cell lysate; assay type: binding, HCV; details: FIG. 10, 1 μM probe, 1h
T1 construct: expressed in transfected cells
Excerpt: The pCI-Neo-FLAG-NS3/4a-WT plasmid was constructed by amplifying the NS3 and 4a sequence from the pFK-I389-luc-ubi-neo-NS3-3′ET vector using Accuprime Pfx (Invitrogen) according to manufacturer's instructions and with primers that added an NheI site and FLAG epitope tag to the 5′ end and an XbaI site to the 3′ end.
The resulting PCR product was then digested with NheI and XbaI and ligated into the same sites of the pCI-Neo vector (Invitrogen). The WT construct was then used as a template for site-directed mutagenesis using the Quickchange II Site-Directed Mutagenesis kit […] and primers containing the K136R or C159S mutations (below).
Lysates were treated with 1 μM of biotinylated covalent probe, XVI-27, for 1h and immunoprecipitated with anti-NS3 antibody (mouse). Immunoblots were probed with streptavidin and anti-NS3 antibody (goat). Successful modification by the covalent probe was assessed and quantified relative to WT NS3.

[2] = molecular target: T2, p110β/p85α (PI3Kβ) (Homo sapiens, UniProt P42338); assay: HTRF assay, p110β/p85α; assay type: biochemical; details: read-out: PI3Kβ HTRF IC50 Inhibition Designation
T2 construct: purchased Millipore 14-603
Description: The mechanics of the assay platform are best described by the vendor (Millipore, Billerica, Mass.) on their website at the following URL: http://www.millipore.com/coa/tech1/74jt4z.
Briefly, Stop solution (Stop A, #33-007 and Stop B, #33-009; 3:1 ratio) and Detection Mix (DMC, #33-015 with DMA, #33-011 and DMB, #33-013; 18:1:1 ratio) were prepared as recommended by the manufacturer ˜2 hrs prior to use. […] Lipid kinase reactions were started with the addition of 5 μL of ATP solution, mixed for 15 sec on a rotary plate shaker and incubated for 15-30 minutes at 25° C. Next, reactions were stopped with a 5 μL addition of Stop solution followed by a 5 μL volume of Detection Mix. […] At the conclusion of each assay, the HTRF ratio from fluorescence emission values for each well was calculated and % Inhibition determined from averaged controls wells. % Inhibition values for each compound re then plotted against inhibitor concentration to estimate IC50 from log [Inhibitor] vs Response, Variable Slope model in GraphPad Prism from GraphPad Software (San Diego, Calif.).

[3] = molecular target: T3, p120γ (PI3Kγ) (Homo sapiens, UniProt P48736); assay: HTRF assay, p120γ; assay type: biochemical; details: PI3Kγ; read-out: PI3Kγ HTRF IC50 Inhibition Designation
T3 construct: purchased BPS Bioscience 40625
In short: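 End-point competition-binding HTRF with 1-4 nM enzyme and 10 μM di-C8-PIP2, pre-incubated with compound 30 min at 25° C, then 50 μM ATP for 15-30 min at 25° C. HTRF ratio (665/620 nm) gave % inhibition; IC50 from variable-slope log-dose fit.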

[4] = molecular target: PI3Kγ (Homo sapiens, UniProt P48736); assay: MALDI MS of intact PI3Kγ incubated with compound; assay type: binding; details: 1 hr, 10-fold excess, 37° C.
Description: Intact PI3Kγ was incubated for 1 hr at a 10-fold excess of compound XXII-33 to protein at 37° C. 5 μL aliquots of the samples were diluted with 10 μL of 0.1% TFA prior to micro C4 Ziptipping directly onto the MALDI target plate using sinapinic acid as the desorption matrix (10 mg/mL in 0.1% TFA:Acetonitrile 50:50).

[5] = molecular target: T4, recombinant human XIAP; BIR3 domain (Homo sapiens, UniProt P98170); assay: Fluorescence polarization competition binding assay, XIAP BIR3 domain
T4 construct: recombinant human XIAP; BIR3 domain (895-XB); purchased R&D Systems 895-XB
Description: (§1) Homogeneous, Fluorescence Polarization, Competition Binding Assay Protocol for Affinity Assessment of Compound Binding to XIAP, cIAP-1 and ML-IAPβ BIR3 Domains
(§2) 1× stocks of recombinant human XIAP; BIR3 domain (895-XB), recombinant human cIAP-1 (818-IA) or recombinant human ML-IAPβ (818-IA) from R&D Systems and Fluorescence Polarization (FP) assay tracer (Atto-647 tagged IAP inhibitor probe compound) were prepared in assay buffer consisting of 25 mM Tris-HCL, pH 7.5 (Sigma), 10 mM […] (Sigma), 1 mM DTT (Fluka) and 0.005% TritonX-100 (Pierce). While IAP protein and tracer equilibrated at ambient temp in the dark (30-60 min), 100× stocks of test compound were prepared in 50% DMSO:H2O, serially diluted and spotted (0.5 µL/well) in duplicate wells of a 384-well, flat bottom, polypropylene, black assay plate (Greiner #781209). […] Competition binding between test compounds and assay tracer was initiated by the addition of 50 µL/well of pre-equilibrated IAP protein and assay tracer. Displacement of the assay tracer was measured in a Synergy plate reader from BioTek (Winooski, Vt.) at λex620/λem680 through a 660 nm half-sized dicroich mirror and S/P polarizing filters every 30 min for 3 hr. (See Huang, X., Journal of Biomolecular Screening 8, 2003). The resulting compound dose response data were fit to a one-site binding Ki model in GraphPad Prism from GraphPad Software (San Diego, Calif.).

[6] = molecular target: T5, recombinant human cIAP-1 (Homo sapiens, UniProt Q13490); assay: Fluorescence polarization competition binding assay, cIAP-1; details: c-IAP-1, 3 h
T5 construct: purchased R&D Systems 818-IA

[7] = molecular target: T6, recombinant human ML-IAPβ (Homo sapiens, UniProt Q96CA5); assay: Fluorescence polarization competition binding assay, ML-IAPβ; details: ML-IAP, 2 h
T6 construct: purchased R&D Systems 818-IA
T6 sequence (Q96CA5 1-280 isoform Q96CA5-2): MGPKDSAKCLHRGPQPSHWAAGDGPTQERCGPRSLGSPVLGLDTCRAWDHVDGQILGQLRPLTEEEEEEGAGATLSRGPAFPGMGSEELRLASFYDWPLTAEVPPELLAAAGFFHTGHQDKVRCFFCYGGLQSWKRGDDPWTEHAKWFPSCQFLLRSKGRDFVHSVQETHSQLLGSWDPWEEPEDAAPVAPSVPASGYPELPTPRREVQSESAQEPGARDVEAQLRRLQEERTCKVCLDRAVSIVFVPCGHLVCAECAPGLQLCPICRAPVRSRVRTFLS
Description: as §1, §2

[8] = molecular target: T7, XIAP (Homo sapiens, UniProt P98170); assay: MALDI mass spectrometric analysis of intact XIAP incubated with compound; assay type: binding; details: 18 hr, 10-fold excess of compound to protein
T7 construct: recombinant human XIAP; BIR3 domain (895-XB)
Description: Intact XIAP was incubated for 18 hr at a 10-fold excess of VII-1 to protein. 3ul aliquots of the samples were diluted with 10 ul of 0.1% TFA prior to micro C4 ZipTipping directly onto the MALDI target using Sinapinic acid as the desorption matrix (10 mg/mL in 0.1% TFA:Acetonitrile 50:50).
Intact XIAP was incubated for 18 hr at a 10-fold excess of VII-21 to protein. 3 ul aliquots of the samples were diluted with 10 ul of 0.1% TFA prior to micro C4 ZipTipping directly onto the MALDI target using Sinapinic acid as the desorption matrix (10 mg/mL in 0.1% TFA:Acetonitrile 50:50).

SMILES | Ki XIAP [5] | Ki [6] | Ki [7] | mass shift of XIAP [8] | modification of XIAP [8] | also measured
C=C[C@H]1C[C@@]1(NC(=O)[C@@H]1CC(Oc2nccc3cc(OC)ccc23)CN1C(=O)[C@H](CCC(=O)N1C[C@@H]2C[C@H]1C(=O)O2)NC(=O)CCCC(=O)NCCCOCCOCCOCCCNC(=O)CCCC[C@@H]1SC[C@@H]2NC(=O)N[C@@H]21)C(=O)NS(=O)(=O)C1CC1 (stereo partly drawn) [XVI-27, N1-((2S)-1-((2S)-2-((1S,2R)-1-(cyclopropylsulfonylcarbamoyl)-2-vinylcyclopropylcarbamoyl)-4-(6-methoxyisoquinolin-1-yloxy)pyrrolidin-1-yl)-1,5-dioxo-5-((1S,4S)-3-oxo-2-oxa-5-azabicyclo[2.2.1]heptan-5-yl)pentan-2-yl)-N5-(15-oxo-19-((3aS,4S,6aR)-2-oxohexahydro-1H-thieno[3,4-d]imidazol-4-yl)-4,7,10-trioxa-14-azanonadecyl)glutaramide] |  |  |  |  |  | modification by covalent probe [1]: modifying NS3/4A C159S
Nc1ncc(-c2nc(N3CCOCC3)c3sc(CN4CCN(C(=O)C5CC(=O)CC(=O)C5)CC4)cc3n2)cn1 [XXII-33, 5-(4-((2-(2-aminopyrimidin-5-yl)-4-morpholinothieno[3,2-d]pyrimidin-6-yl)methyl)piperazine-1-carbonyl)cyclohexane-1,3-dione] |  |  |  |  |  | IC50 [2]: 100 to 1000 nM; IC50 [3]: 100 to 1000 nM; mass shift of PI3Kγ [4]: 492 Da; mass shift of PI3Kγ as percent [4]: 90%; modification of PI3Kγ [4]: complete modification
C=CC(=O)Nc1cccc(CNC(=O)[C@@H]2CC[C@@H]3CCCC[C@H](NC(=O)[C@H](C)NC)C(=O)N32)c1 [VII-1, (3S,6S,10aS)-N-(3-acrylamidobenzyl)-6-((S)-2-(methylamino)propanamido)-5-oxodecahydropyrrolo[1,2-a]azocine-3-carboxamide] | 161 nM | 100 to 1000 nM | 100 to 1000 nM | 417 Da | complete modification | 
C=CC(=O)Nc1cccc(CNC(=O)[C@@H]2CC[C@@H]3CCCC[C@H](NC(=O)[C@H](C)N(C)C(=O)OC(C)(C)C)C(=O)N32)c1 [VII-2] | > 10,000 nM | > 10000 nM | > 10000 nM |  |  | Ki (XIAP) Inhibition Designation ([5]; XIAP): E (IC50≥10,000 nM)
CN[C@@H](C)C(=O)N[C@H]1CCCC[C@H]2CC[C@@H](C(=O)NCc3cccc(NC(=O)[C@H]4CCC(=O)O4)c3)N2C1=O [VII-21] |  | 100 to 1000 nM | 1000 to 10000 nM | 522 Da | complete modification | 
